Test results from patent publication EP0293900B1, “Phenolic thioethers, sulfoxides, and disulfides as inhibitors of 5-lipoxygenase” (G.D. Searle & Co., priority 1987, dated 1988).

Each molecule was assayed against T1, 5-lipoxygenase (Rattus norvegicus, UniProt P12527) (assay: Inhibition of 5-lipoxygenase, in vitro (5-HETE synthesis from [1-14C]-arachidonic acid, RBL-1 supernatant)). Conditions: 100,000 x g supernatant of Rat Basophilic Leukemia Cell Homogenate (RBL-1); active = 30% or more inhibition of 5-HETE synthesis; initial screening 1 x 10⁻⁴M.
T1 construct: The 100,000 x g supernatant fraction of Rat Basophilic Leukemia Cell Homogenate (RBL-1) serves as a 5-lipoxygenase enzyme source; endogenous in cells; host or cells: RBL-1 (rat basophilic leukemia) cells, 100,000 x g supernatant of the homogenate
T1 sequence (P12527 1-673): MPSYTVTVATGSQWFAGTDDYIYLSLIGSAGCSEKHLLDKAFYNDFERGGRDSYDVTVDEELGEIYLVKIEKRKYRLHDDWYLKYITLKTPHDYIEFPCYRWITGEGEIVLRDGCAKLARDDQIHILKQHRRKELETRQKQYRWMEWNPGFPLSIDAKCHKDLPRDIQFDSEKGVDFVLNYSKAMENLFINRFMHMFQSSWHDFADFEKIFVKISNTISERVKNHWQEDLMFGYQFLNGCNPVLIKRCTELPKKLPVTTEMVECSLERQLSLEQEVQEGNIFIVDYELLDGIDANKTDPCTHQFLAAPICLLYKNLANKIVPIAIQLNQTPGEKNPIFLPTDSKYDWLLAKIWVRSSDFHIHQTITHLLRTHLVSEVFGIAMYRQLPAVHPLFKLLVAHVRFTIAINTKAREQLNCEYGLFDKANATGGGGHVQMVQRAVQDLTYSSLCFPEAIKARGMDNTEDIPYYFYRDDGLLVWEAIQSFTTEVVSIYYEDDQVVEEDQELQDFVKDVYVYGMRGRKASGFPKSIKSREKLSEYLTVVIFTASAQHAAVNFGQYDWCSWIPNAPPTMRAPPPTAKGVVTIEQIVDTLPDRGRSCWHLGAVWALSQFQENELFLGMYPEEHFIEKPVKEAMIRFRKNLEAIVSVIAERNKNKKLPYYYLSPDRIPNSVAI
Format: biochemical
Procedure: The compounds of the invention are evaluated with respect to 5-lipoxygenase inhibition according to the following assay procedure.
Inhibition of 5-lipoxygenase, in vitro: anti-inflammatory, anti-allergy activities.
The 100,000 x g supernatant fraction of Rat Basophilic Leukemia Cell Homogenate (RBL-1) serves as a 5-lipoxygenase enzyme source. The enzyme is incubated with [1-¹⁴C)-arachidonic acid and Ca⁺⁺ in the presence and absence of test compound. The product of 5-lipoxygenase, 5-hydroxyeicosatetraenoic acid (5-HETE), is separated by thin-layer chromatography and measured by radioactivity. A compound inhibiting 5-HETE synthesis by 30% or more is considered active at that concentration. Initial screening doses are 1 x 10⁻⁴M.

With COC(=O)CCS(=O)(=O)c1cc(C(C)(C)C)c(O)c(C(C)(C)C)c1 [Example 11, Methyl 3-[[3,5-bis(1,1 dimethylethyl)-4-hydroxyphenyl]sulfonyl]propanoate] the “5-Lipoxygenase Inhibition, in vitro. IC₅₀” value was “Inactive”.

Same assay, conditions: 100,000 x g supernatant of Rat Basophilic Leukemia Cell Homogenate (RBL-1); active = 30% or more inhibition of 5-HETE synthesis; initial screening 1 x 10⁻⁴M; read-out: 5-Lipoxygenase Inhibition, in vitro. IC₅₀

Compared with CCCC(Sc1cc(C(C)(C)C)c(O)c(C(C)(C)C)c1)C(=O)OCC (centres unmarked) [Example 7, Ethyl 2-[[3,5-bis(1,1-dimethylethyl)-4-hydroxyphenyl]thio]pentanoate], CCCC(Sc1cc(C(C)(C)C)c(O)c(C(C)(C)C)c1)C(=O)O (centres unmarked) [Example 8] is 5.1-fold higher in IC50: 1300 nM for the first, 6600 nM for the second.

COC(=O)CSSc1cc(C(C)(C)C)c(O)c(C(C)(C)C)c1 [Example 14, Methyl [[3,5-bis(1,1-dimethylethyl)-4-hydroxyphenyl]dithio]acetate] and COC(=O)CCSc1cc(C(C)(C)C)c(O)c(C(C)(C)C)c1 [Example 9, Methyl 3-[[3,5-bis(1,1-dimethylethyl)-4-hydroxyphenol]thio]propanoate] are within 1.5-fold of each other in IC50: 400 nM for the first, 380 nM for the second.

Going from CC(C)(C)c1cc(SCCC(=O)O)cc(C(C)(C)C)c1O [Example 12, 3-[[3,5-bis(1,1-dimethylethyl)-4-hydroxyphenyl]thio]propanic acid] to CC(C)(C)c1cc(SCCCC(=O)O)cc(C(C)(C)C)c1O [Example 3, 4-[[3,5-bis(1,1-dimethylethyl)-4-hydroxyphenyl]thio] butanoic acid], the IC50 falls from 3400 nM to 1000 nM (3.4-fold).

First: CC(C)(C)c1cc(SCCCCC(=O)O)cc(C(C)(C)C)c1O [Example 4, 5-[[3,5-bis(1,1-dimethylethyl)-4-hydroxyphenyl]thio]pentanoic acid]
Second: CCOC(=O)C=CCCSc1cc(C(C)(C)C)c(O)c(C(C)(C)C)c1 [Example 13, Ethyl 5-[[3,5-bis(1,1-dimethylethyl)-4-hydroxyphenyl]thio]-2-pentenoate]
The IC50 of the first is 4.2-fold higher: 1100 nM for the first, 260 nM for the second. The second is the more potent here.

First: COC(=O)CC[S+]([O-])c1cc(C(C)(C)C)c(O)c(C(C)(C)C)c1 (centres unmarked) [Example 10, Methyl 3-[[3,5-bis(1,1-dimethylethyl)-4-hydroxyphenyl]sulfinyl]propanoate]
Second: CCOC(=O)C(C)Sc1cc(C(C)(C)C)c(O)c(C(C)(C)C)c1 (centres unmarked) [Example 5, Ethyl 2-[[3,5-bis(1,1-dimethylethyl)-4-hydroxyphenyl]thio]propanoate]
The IC50 of the first is 42-fold higher: 16500 nM for the first, 390 nM for the second.
